The results in this text go back to ChEMBL document CHEMBL5126546, “Advancements in the development of multi-target directed ligands for the treatment of Alzheimer's disease” (Bioorg Med Chem, 2022).

The target of test [1] is Amine oxidase [flavin-containing] B (Homo sapiens, UniProt P27338). In words: Inhibition of recombinant human MAO-B using p-tyramine as substrate preincubated for 15 mins followed by substrate addition and measured after 30 mins by Amplex Red reagent based fluorometric analysis.
Amine oxidase [flavin-containing] B, sequence (P27338 whole entry): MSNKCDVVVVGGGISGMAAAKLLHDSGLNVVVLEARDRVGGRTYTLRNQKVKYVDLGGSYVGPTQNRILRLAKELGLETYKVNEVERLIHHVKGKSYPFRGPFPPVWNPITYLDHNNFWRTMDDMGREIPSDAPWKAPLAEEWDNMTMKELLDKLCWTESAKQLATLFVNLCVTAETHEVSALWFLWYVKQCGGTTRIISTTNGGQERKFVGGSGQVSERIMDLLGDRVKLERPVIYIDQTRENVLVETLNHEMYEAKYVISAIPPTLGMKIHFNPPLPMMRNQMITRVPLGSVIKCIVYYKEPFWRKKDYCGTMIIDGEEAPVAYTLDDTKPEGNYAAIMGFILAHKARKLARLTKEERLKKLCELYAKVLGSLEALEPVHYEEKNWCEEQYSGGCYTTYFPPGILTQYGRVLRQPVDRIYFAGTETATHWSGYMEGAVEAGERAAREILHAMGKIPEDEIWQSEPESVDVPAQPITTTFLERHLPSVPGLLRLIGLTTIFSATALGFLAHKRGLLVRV
In test [2] the target is Amine oxidase [flavin-containing] A (Homo sapiens, UniProt P21397). Briefly: Inhibition of recombinant human MAO-A using p-tyramine as substrate preincubated for 15 mins followed by substrate addition and measured after 30 mins by Amplex Red reagent based fluorometric analysis.
Amine oxidase [flavin-containing] A, sequence (P21397 whole entry): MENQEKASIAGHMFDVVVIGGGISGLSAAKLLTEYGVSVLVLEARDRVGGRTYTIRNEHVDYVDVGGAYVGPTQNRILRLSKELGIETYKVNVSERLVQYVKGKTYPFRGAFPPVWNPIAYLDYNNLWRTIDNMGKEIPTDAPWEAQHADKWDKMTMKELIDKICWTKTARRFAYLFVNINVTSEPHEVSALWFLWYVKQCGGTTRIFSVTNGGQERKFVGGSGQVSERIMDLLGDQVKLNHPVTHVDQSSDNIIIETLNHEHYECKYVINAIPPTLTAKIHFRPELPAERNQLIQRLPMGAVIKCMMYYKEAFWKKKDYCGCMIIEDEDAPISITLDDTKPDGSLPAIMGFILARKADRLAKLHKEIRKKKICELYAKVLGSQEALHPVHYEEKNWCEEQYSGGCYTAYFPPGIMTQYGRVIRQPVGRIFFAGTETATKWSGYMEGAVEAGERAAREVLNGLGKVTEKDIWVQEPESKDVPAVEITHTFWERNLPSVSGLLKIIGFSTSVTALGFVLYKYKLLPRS
Test [3] has as its target T1, Acetylcholinesterase (Homo sapiens, UniProt P22303). Briefly: Inhibition of recombinant human AChE using acetylthiocholine iodide as substrate by Ellman's method.
For test [4], the target named is T2, Cholinesterase (Equus caballus, UniProt P81908). Briefly: Inhibition of equine serum BuChE using butyrylthiocholine iodide as substrate by Ellman's method.
T2 sequence (P81908 whole entry): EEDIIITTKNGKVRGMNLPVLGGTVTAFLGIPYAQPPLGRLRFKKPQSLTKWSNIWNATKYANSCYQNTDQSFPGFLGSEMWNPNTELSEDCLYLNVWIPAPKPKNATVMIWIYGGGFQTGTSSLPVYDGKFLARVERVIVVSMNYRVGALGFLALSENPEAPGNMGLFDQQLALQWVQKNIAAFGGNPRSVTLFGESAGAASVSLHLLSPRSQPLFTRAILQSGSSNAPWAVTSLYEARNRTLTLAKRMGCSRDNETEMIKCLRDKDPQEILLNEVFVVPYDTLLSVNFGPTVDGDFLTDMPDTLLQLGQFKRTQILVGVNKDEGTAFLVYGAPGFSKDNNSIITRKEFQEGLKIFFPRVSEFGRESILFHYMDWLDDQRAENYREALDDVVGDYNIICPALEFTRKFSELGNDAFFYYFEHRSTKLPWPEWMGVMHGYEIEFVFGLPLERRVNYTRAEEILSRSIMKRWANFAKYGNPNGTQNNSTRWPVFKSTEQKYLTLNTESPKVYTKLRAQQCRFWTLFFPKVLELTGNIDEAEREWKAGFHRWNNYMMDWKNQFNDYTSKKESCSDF
The subject of a further test is SH-SY5Y. Briefly: Cytotoxicity against human SH-SY5Y cells assessed as reduction in cell viability for 24 hrs by MTT assay. Format: functional, cell-based. A general note: Tetrazolium assays rely on reduction of a dye to a coloured formazan, in cell work by metabolically active cells.
Test [5] has as its target T1, Acetylcholinesterase. In words: Inhibition of recombinant human AChE using acetylthiocholine iodide as substrate preincubated for 5 mins followed by substrate addition by Ellman's method.
The next test deals with HepG2. In words: Cytotoxicity against human HepG2 cells assessed as reduction in cell viability for 24 hrs by MTT assay. It is filed as functional, cell-based. Conditions: HepG2, 24 h.
The target in test [6] is T3, Cholinesterase (Homo sapiens, UniProt P06276). In words: Inhibition of recombinant human BuChE using butyrylthiocholine iodide as substrate preincubated for 5 mins followed by substrate addition by Ellman's method. On the technique in general: DTNB colorimetry detects thiols as they appear.
T3 sequence (P06276 whole entry): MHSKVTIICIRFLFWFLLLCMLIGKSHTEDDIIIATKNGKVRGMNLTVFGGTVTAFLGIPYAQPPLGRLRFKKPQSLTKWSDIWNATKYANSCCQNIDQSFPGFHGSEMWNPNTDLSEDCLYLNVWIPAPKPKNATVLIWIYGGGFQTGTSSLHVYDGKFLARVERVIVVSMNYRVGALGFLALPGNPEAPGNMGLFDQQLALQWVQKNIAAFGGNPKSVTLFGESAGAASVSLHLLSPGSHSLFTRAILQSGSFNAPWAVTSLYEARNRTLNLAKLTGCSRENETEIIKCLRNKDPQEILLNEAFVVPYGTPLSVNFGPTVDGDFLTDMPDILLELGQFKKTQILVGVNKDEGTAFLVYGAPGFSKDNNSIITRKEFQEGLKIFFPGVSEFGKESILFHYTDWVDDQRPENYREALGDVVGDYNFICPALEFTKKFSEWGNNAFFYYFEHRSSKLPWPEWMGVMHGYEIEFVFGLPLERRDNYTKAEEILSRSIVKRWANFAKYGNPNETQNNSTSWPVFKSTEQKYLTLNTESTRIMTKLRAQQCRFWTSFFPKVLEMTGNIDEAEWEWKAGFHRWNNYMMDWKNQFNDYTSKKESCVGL
The target of test [7] is T3, Cholinesterase. In words: Inhibition of BuChE (unknown origin).
The target in test [8] is T4, Amyloid-beta precursor protein (Homo sapiens, UniProt P05067). Briefly: Inhibition of self-induced amyloid beta (1 to 42) (unknown origin) aggregation at 25 uM.
T4 sequence (P05067 whole entry): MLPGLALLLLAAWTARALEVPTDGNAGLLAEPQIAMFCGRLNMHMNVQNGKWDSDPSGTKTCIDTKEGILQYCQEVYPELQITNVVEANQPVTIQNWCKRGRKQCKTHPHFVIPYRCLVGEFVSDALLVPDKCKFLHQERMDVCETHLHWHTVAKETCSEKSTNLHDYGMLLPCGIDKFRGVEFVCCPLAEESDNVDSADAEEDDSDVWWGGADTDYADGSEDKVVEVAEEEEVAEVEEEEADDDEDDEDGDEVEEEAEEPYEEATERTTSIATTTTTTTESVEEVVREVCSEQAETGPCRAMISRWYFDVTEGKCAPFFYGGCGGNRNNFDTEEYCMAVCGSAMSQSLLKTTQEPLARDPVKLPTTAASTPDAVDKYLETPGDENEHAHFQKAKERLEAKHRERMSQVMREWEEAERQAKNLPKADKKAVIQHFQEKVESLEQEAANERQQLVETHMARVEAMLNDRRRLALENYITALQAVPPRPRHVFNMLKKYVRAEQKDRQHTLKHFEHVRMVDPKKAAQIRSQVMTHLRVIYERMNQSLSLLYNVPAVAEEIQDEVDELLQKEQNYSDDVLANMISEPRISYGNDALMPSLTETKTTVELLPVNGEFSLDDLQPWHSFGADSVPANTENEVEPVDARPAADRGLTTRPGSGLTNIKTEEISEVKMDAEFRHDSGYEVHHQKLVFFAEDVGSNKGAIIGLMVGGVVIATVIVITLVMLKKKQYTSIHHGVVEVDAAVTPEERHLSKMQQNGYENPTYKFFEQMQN
Test [9] has as its target T4, Amyloid-beta precursor protein. In words: Inhibition of self-induced amyloid beta (1 to 42) (unknown origin) disaggregation at 25 uM.
For test [10], the target named is T5, Acetylcholinesterase (Electrophorus electricus, UniProt O42275). In words: Inhibition of electric eel AChE using acetylthiocholine iodide as substrate by spectrophotometric based Ellman's method.
T5 sequence (O42275 whole entry): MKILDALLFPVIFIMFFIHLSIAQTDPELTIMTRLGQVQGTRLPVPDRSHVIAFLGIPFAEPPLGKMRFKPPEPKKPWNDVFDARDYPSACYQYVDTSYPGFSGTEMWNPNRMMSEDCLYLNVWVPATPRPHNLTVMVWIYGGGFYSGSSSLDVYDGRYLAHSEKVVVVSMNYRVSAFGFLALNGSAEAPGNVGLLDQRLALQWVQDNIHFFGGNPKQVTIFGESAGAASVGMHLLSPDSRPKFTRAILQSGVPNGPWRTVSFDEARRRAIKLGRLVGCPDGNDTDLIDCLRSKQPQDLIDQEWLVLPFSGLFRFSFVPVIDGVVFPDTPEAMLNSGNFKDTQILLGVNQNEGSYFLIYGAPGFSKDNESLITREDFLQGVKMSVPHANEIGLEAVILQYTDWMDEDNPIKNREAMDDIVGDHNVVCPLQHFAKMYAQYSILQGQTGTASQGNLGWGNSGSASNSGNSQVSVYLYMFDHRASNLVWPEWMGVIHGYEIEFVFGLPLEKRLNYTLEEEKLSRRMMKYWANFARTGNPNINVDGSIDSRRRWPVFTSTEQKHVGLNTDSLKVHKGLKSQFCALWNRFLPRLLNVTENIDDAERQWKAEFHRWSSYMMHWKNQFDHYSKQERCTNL
Test [11] addresses T2, Cholinesterase. In words: Inhibition of horse serum BuChE using butyrylthiocholine chloride as substrate by spectrophotometric based Ellman's method.
For another test, the system named is SK-N-MC. In words: Antiproliferative activity against human SK-N-MC cells assessed as reduction in cell proliferation incubated for 72 hrs by MTT assay. Format: functional, cell-based.
Test [12] concerns the target T1, Acetylcholinesterase. Briefly: Inhibition of AChE (unknown origin) using acetylthiocholine iodide as substrate preincubated for 45 mins followed by substrate addition by DTNB reagent based Ellman's method.
Test [13] in a line: Antioxidant activity assessed as NO radical scavenging activity incubated for 150 mins in presence of sodium nitroprusside by griess reagent based assay. It is filed as functional. Background: Nitrite, measured by Griess reagent, commonly stands in for NO production.
A short description of test [14]: Antioxidant activity assessed as DPPH radical scavenging activity incubated for 30 mins by DPPH assay. Format: functional.
Test [15] has as its target Microtubule-associated protein tau (Homo sapiens) (UniProt P10636). In words: Inhibition of tau aggregation (unknown origin) at 20 uM for 72 hrs by thioflavin S based fluorescence analysis.
Test [16] has as its target T6, Gamma-secretase (Homo sapiens) (UniProt Q96BI3+Q9NZ42+Q8WW43+P49768+Q92542+P49810). Briefly: Inhibition of gamma secretase in human H4 cells expressing human wild type APP assessed as reduction in amyloid beta 1-42 level at 100 uM for 12 hrs by ELISA. It is filed as cell-based.
The target in test [17] is T6, Gamma-secretase (Homo sapiens). In words: Inhibition of gamma secretase in human H4 cells expressing human wild type APP assessed as reduction in amyloid beta 1-40 level at 100 uM for 12 hrs by ELISA. It is filed as cell-based.
Test [18] addresses T1, Acetylcholinesterase. In words: Inhibition of recombinant human AChE using Amplex red, acetylthiocholine as substrate preincubated for 15 mins followed by substrate addition and measured after 30 mins by microplate fluorescence reader analysis.
Another test has as its target Beta-secretase 1 (Homo sapiens, UniProt P56817). Briefly: Inhibition of BACE-1 (unknown origin).
Test [19] has as its target T1, Acetylcholinesterase. In words: Inhibition of AChE (unknown origin) by spectrophotometric based Ellman's method.
Test [20] has as its target T3, Cholinesterase. In words: Inhibition of BuChE (unknown origin) by spectrophotometric based Ellman's method.
Test [21] addresses T5, Acetylcholinesterase. Briefly: Inhibition of Electrophorus electricus AChE using acetylthiocholine iodide as substrate preincubated for 5 mins followed by substrate addition and measured for 2 mins by spectrophotometric based Ellman's method.
Test [22] has as its target T2, Cholinesterase. In words: Inhibition of equine serum BuChE using butyrylthiocholine iodide as substrate preincubated for 5 mins followed by substrate addition and measured for 2 mins by spectrophotometric based Ellman's method.
Test [23] deals with T4, Amyloid-beta precursor protein. Briefly: Inhibition of amyloid beta (1 to 42) (unknown origin) self aggregation at 40 uM and measured after 24 hrs by Thioflavin T based fluorometric assay.

The structures appear in SMILES notation.

T1 sequence (P22303 whole entry): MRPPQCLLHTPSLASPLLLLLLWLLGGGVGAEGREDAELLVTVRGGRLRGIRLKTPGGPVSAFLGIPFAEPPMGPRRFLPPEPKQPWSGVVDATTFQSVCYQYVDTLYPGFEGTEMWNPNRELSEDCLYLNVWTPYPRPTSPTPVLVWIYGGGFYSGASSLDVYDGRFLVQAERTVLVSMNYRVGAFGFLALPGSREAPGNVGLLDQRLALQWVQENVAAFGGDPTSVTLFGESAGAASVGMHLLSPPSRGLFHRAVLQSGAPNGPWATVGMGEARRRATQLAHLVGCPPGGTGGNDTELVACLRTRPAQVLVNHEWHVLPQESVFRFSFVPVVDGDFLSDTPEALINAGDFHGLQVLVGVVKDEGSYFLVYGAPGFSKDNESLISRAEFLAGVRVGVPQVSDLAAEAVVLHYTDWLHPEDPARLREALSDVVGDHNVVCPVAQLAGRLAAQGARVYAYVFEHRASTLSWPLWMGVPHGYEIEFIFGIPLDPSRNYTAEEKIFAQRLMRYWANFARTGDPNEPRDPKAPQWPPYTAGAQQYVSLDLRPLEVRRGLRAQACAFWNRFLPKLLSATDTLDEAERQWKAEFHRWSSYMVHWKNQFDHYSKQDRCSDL
Beta-secretase 1, sequence (P56817 whole entry): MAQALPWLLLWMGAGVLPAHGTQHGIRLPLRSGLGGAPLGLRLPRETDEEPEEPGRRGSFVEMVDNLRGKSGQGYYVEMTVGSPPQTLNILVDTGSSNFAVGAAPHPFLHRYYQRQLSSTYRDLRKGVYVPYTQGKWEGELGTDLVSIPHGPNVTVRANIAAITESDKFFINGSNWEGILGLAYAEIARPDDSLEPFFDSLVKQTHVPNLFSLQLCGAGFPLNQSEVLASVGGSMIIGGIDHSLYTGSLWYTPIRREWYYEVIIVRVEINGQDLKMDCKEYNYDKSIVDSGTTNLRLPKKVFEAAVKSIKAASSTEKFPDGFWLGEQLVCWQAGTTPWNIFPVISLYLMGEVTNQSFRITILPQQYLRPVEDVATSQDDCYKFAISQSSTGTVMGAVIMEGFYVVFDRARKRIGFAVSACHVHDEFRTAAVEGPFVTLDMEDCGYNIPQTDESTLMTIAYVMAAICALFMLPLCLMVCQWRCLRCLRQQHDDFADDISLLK

One may read the IC50 as the concentration that gives 50% inhibition. On to `C#CCOc1ccc(-c2cc(-c3ccc(OCCN4CCOCC4)cc3)nc(N)n2)cc1`, for which the values for the IC50 in test [1] and in test [2] were 9.91 µM and 18.3 µM, respectively.

As to `CCN1CCN(c2ccc(-c3nc4ccccc4[nH]3)cc2)CC1`, the IC50 at Acetylcholinesterase [3] was 5.18 µM; at Cholinesterase [4], 34.9 µM.

For `COc1ccc2nc3c(c(N)c2c1)C1CC=CC(C3)C1` (configuration not stated), the IC50 in the test with SH-SY5Y was found to be 17.8 µM; on Acetylcholinesterase [5] it was 2.63 µM; in the test on HepG2 it was 14.9 µM; on Cholinesterase [6], 3.76 µM.

What is called inhibition is the relative decrease from the control value, in per cent. On to `COc1cc(/C=C/C(=O)N2CCC(c3ncccn3)CC2)ccc1O`, for which, at Cholinesterase [7], it took 3.4 µM to reach half-maximal inhibition (IC50). The inhibition in [8] is 61.1%; in test [9] it was 53.1%.

With `O=C(N/N=C/Nc1c2c(nc3ccccc13)CCCC2)C12CC3CC(CC(C3)C1)C2`, the IC50 at Acetylcholinesterase [10] came out at 6.77 µM; at Cholinesterase [11], 0.615 µM.

With `O=C(N/N=C/c1ccccn1)c1ccc(C(=O)NC23CC4CC(CC(C4)C2)C3)cc1`, the half-maximal inhibitory concentration (IC50) in the test with SK-N-MC was 42.4 µM.

As to `CC1(C)CCCC2(C)OC(=O)C=C12` (racemic) [DIHYDROACTINIDIOLIDE], the IC50 against Acetylcholinesterase [12] is 0.03 µM; in test [13], 50 µM; in [14], 0.05 µM.

`CC1=C[C@H]2c3c(O)cc(-c4cc5ccc(O)cc5o4)cc3O[C@@]3(c4ccc(O)cc4O)Oc4cc(O)ccc4[C@H](C1)[C@@H]23` returned an inhibition in [15] of 37.3%.

In the case of `O=S(=O)(NC1C2CC3CC(C2)CC1C3)c1cccs1` (configuration not stated), the inhibition in test [16] came out at 22%; in test [17], 10%.

Regarding `C#CCOc1cccc(-c2cc(-c3ccc(OCCN4CCOCC4)cc3)nc(C)n2)c1`, the IC50 on Acetylcholinesterase [18] was found to be 0.00954 µM.

On to `O=C(OC1O[C@@H]2COC(=O)c3cc(O)c(O)c(O)c3-c3c(cc(O)c(O)c3O)C(=O)O[C@H]2[C@H](OC(=O)c2cc(O)c(O)c(O)c2)[C@H]1OC(=O)c1cc(O)c(O)c(O)c1)c1cc(O)c(O)c(O)c1` (some centres not stated) [TELLIMAGRANDIN II], for which half-maximal inhibition against Beta-secretase 1 (IC50) required 20.2 µM.

As for `O=C(OC[C@H]1O[C@@H](OC(=O)c2cc(O)c(O)c(O)c2)[C@H](OC(=O)c2cc(O)c(O)c(O)c2)[C@@H](OC(=O)c2cc(O)c(O)c(O)c2)[C@@H]1O)c1cc(O)c(O)c(O)c1`, the IC50 at Acetylcholinesterase [19] stood at 11.9 µM; against Cholinesterase [20] it was 18.3 µM.

Turning to `c1ccc(C[n+]2ccc(-c3nc4ccccc4s3)cc2)cc1`, the figures for the IC50 against Acetylcholinesterase [21] and on Cholinesterase [22] were 0.014 µM and 0.182 µM, respectively.

In test [23], `COc1cc(-c2nc3ccccc3s2)ccc1OCC(=O)NCCCNc1c2c(nc3ccccc13)CCCC2` had an inhibition of 33.7%.
